T-cell binding data for 11 substances are collected here from ChEMBL document CHEMBL1146673, “Inhibition of ICAM-1/LFA-1-mediated heterotypic T-cell adhesion to epithelial cells: design of ICAM-1 cyclic peptides” (2004).

The subject of the assay is T-cell. Nature of the assay: Ability of compound to inhibit the T-cell adhesion at 200 uM in cell adhesion assay. In kind it is functional, Homo sapiens.
Consider H-VIAPRG-OH, for which the T-cell binding is recorded as 46%.

As for H-PSKVIL-OH, the T-cell binding is 44%.

The substance H-VALPRG-OH yielded a T-cell binding of 71%.

Consider H-VILPRG-OH, for which the T-cell binding is listed as 32%.

For the substance H-PRGGSV-OH, the T-cell binding stood at 25%.

On to H-KVILPR-OH, for which the T-cell binding came out at 49%.

Regarding H-LPRGGS-OH, the T-cell binding was 37%.

H-AILPRG-OH: the T-cell binding worked out at 53%.

Take H-VILPRA-OH: the T-cell binding stood at 68%.

For H-ILPRGG-OH, the T-cell binding turned out to be 46%.

Regarding H-VILARG-OH, the T-cell binding came to 62%.
